Values of other authors as cited in patent publication US6770263B1, “Compositions and methods for the treatment of aches and pains” (NatureWell, Incorporated, priority 2001, dated 2004).

Conditions: following the administration of 500 mg aspirin

plasma level: 130 µM
SMILES: CC(=O)Oc1ccccc1C(=O)O [aspirin, acetylsalicylic acid]
